Measurements: US6355799B1, “Substituted benzene compounds, process for their preparation, and herbicidal and defoliant compositions containing them” (ISK Americas Incorporated, priority 1997, dated 2002)

Legend:
Format in all cases: in vivo
[1] = test system: redroot pigweed (Amaranthus retroflexus, AMARE); test: Pre-emerge test, greenhouse herbicide activity screening; conditions: for phytotoxicity rating AMARE: 14 days after application, rating scale 0-100
Procedure, shortened: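 Sandy loam pots; pre-emerge: sown 1 d pre-spray, surface-watered after, then bottom-watered. Post-emerge: sown 8–21 d before, 2–3 leaf stage, + 0.25% v/v NIS, bottom-watered. Acetone, 187 l/ha track spray, 15–1000 g ai/ha. 0–100 injury score, day 14.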

[2] = test system: barnyardgrass (Echinochloa crus-galli, ECHCG); test: as above; conditions: for phytotoxicity rating ECHCG: 14 days after application, rating scale 0-100
Procedure, shortened: (§1)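 Plants grown in 10 cm pots of sandy loam mix received acetone-dissolved compounds through a moving flat-fan nozzle. Doses ranged from 15 to 1000 g ai/ha. Pre-emerge pots were seeded one day earlier, post-emerge pots 8–21 days earlier. Fourteen days on, each pot was graded 0–100 for damage.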

[3] = test system: green foxtail (Setaria viridis, SETVI); test: as above; conditions: for phytotoxicity rating SETVI: 14 days after application, rating scale 0-100
Procedure, shortened: as §1

[4] = test system: ivyleaf morningglory (Ipomoea hederacea, IPOHE); test: as above; conditions: for phytotoxicity rating IPOHE: 14 days after application, rating scale 0-100
Procedure, shortened: as §1

[5] = test system: johnsongrass (Sorghum halepense, SORHA); test: as above; conditions: for phytotoxicity rating SORHA: 14 days after application, rating scale 0-100
Procedure, shortened: as §1

[6] = test system: lambsquarters (Chenopodium album, CHEAL); test: as above; conditions: for phytotoxicity rating CHEAL: 14 days after application, rating scale 0-100
Procedure, shortened: as §1

[7] = test system: large crabgrass (Digitaria sanguinalis, DIGSA); test: as above; conditions: for phytotoxicity rating DIGSA: 14 days after application, rating scale 0-100
Procedure, shortened: as §1

[8] = test system: sicklepod (Cassia obtusifolia, CASOB); test: as above; conditions: for phytotoxicity rating CASOB: 14 days after application, rating scale 0-100
Procedure, shortened: as §1

[9] = test system: velvetleaf (Abutilon theophrasti, ABUTH); test: as above; conditions: for phytotoxicity rating ABUTH: 14 days after application, rating scale 0-100
Procedure, shortened: as §1

[10] = test system: field corn (Zea mays L., var. Dekalb 535, CORN); test: Pre-emerge test, crop safety; conditions: for phytotoxicity rating CORN: 14 days after application, rating scale 0-100
Procedure, shortened: (§2)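 Visual ratings on a 0-100 scale (0 no damage, 100 all plants dead) were taken at 14 days after treatment. Rates of 15-1000 g ai/ha in acetone, 187 l/ha, were sprayed onto soil one day after planting (pre-emerge) or onto 2-3 leaf plants with 0.25% v/v surfactant (post-emerge).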

[11] = test system: upland rice (Oryza sp., var. Tebonnet, RICE); test: Pre-emerge test, crop safety; conditions: for phytotoxicity rating RICE: 14 days after application, rating scale 0-100
Procedure, shortened: as §2

[12] = pre-emerge, rate 63 g ai/ha, phytotoxicity rating 0-100 at 14 days after application
[13] = pre-emerge, rate 250 g ai/ha, phytotoxicity rating 0-100 at 14 days after application
[14] = crop damage, pre-emerge, rate 63 g ai/ha, phytotoxicity rating 0-100 at 14 days after application
[15] = crop damage, pre-emerge, rate 250 g ai/ha, phytotoxicity rating 0-100 at 14 days after application
[16] = 63 g ai/ha, phytotoxicity rating 0-100, 14 days after application
[17] = 250 g ai/ha, phytotoxicity rating 0-100, 14 days after application
[18] = 63 g ai/ha, crop damage rating 0-100, 14 days after application
[19] = 250 g ai/ha, crop damage rating 0-100, 14 days after application

C#CCOc1c(Cl)cc(Cl)c(-n2nnn(CCCF)c2=O)c1N [Compound 5-15]
Pre-emerge Herbicidal Activity AMARE [1, 12]: 0 | Pre-emerge Herbicidal Activity AMARE [1, 13]: 0 | Pre-emerge Herbicidal Activity ECHCG [2, 12]: 0 | Pre-emerge Herbicidal Activity ECHCG [2, 13]: 0 | Pre-emerge Herbicidal Activity SETVI [3, 12]: 0 | Pre-emerge Herbicidal Activity SETVI [3, 13]: 0 | Pre-emerge Herbicidal Activity IPOHE [4, 12]: 0 | Pre-emerge Herbicidal Activity IPOHE [4, 13]: 0 | Pre-emerge Herbicidal Activity SORHA [5, 12]: 0 | Pre-emerge Herbicidal Activity SORHA [5, 13]: 0 | Pre-emerge Herbicidal Activity CHEAL [6, 12]: 0 | Pre-emerge Herbicidal Activity CHEAL [6, 13]: 0 | Pre-emerge Herbicidal Activity DIGSA [7, 12]: 0 | Pre-emerge Herbicidal Activity DIGSA [7, 13]: 0 | Pre-emerge Herbicidal Activity CASOB [8, 12]: 0 | Pre-emerge Herbicidal Activity CASOB [8, 13]: 0 | Pre-emerge Herbicidal Activity ABUTH [9, 12]: 0 | Pre-emerge Herbicidal Activity ABUTH [9, 13]: 0 | Pre-emerge Herbicidal Activity CORN [10, 14]: 0 | Pre-emerge Herbicidal Activity CORN [10, 15]: 0 | Pre-emerge Herbicidal Activity RICE [11, 14]: 0 | Pre-emerge Herbicidal Activity RICE [11, 15]: 0

COc1c(Cl)cc(F)c(-n2nnn(CCCF)c2=O)c1N [Compound 5-3]
Pre-emerge Herbicidal Activity AMARE [1, 12]: 60 | Pre-emerge Herbicidal Activity AMARE [1, 13]: 100 | Pre-emerge Herbicidal Activity ECHCG [2, 12]: 0 | Pre-emerge Herbicidal Activity ECHCG [2, 13]: 20 | Pre-emerge Herbicidal Activity SETVI [3, 12]: 70 | Pre-emerge Herbicidal Activity SETVI [3, 13]: 100 | Pre-emerge Herbicidal Activity IPOHE [4, 12]: 0 | Pre-emerge Herbicidal Activity IPOHE [4, 13]: 10 | Pre-emerge Herbicidal Activity SORHA [5, 12]: 0 | Pre-emerge Herbicidal Activity SORHA [5, 13]: 95 | Pre-emerge Herbicidal Activity CHEAL [6, 12]: 100 | Pre-emerge Herbicidal Activity CHEAL [6, 13]: 100 | Pre-emerge Herbicidal Activity DIGSA [7, 12]: 30 | Pre-emerge Herbicidal Activity DIGSA [7, 13]: 100 | Pre-emerge Herbicidal Activity CASOB [8, 12]: 0 | Pre-emerge Herbicidal Activity CASOB [8, 13]: 30 | Pre-emerge Herbicidal Activity ABUTH [9, 12]: 100 | Pre-emerge Herbicidal Activity ABUTH [9, 13]: 100 | Pre-emerge Herbicidal Activity CORN [10, 14]: 0 | Pre-emerge Herbicidal Activity CORN [10, 15]: 0 | Pre-emerge Herbicidal Activity RICE [11, 14]: 20 | Pre-emerge Herbicidal Activity RICE [11, 15]: 20

COc1c(Cl)cc(F)c(-n2c(=O)n3n(c2=O)CCCC3)c1N [9-4]
Pre-emerge Herbicidal Activity AMARE [1, 12]: 60 | Pre-emerge Herbicidal Activity AMARE [1, 13]: 100 | Pre-emerge Herbicidal Activity ECHCG [2, 12]: 0 | Pre-emerge Herbicidal Activity ECHCG [2, 13]: 10 | Pre-emerge Herbicidal Activity SETVI [3, 12]: 0 | Pre-emerge Herbicidal Activity SETVI [3, 13]: 70 | Pre-emerge Herbicidal Activity IPOHE [4, 12]: 10 | Pre-emerge Herbicidal Activity IPOHE [4, 13]: 50 | Pre-emerge Herbicidal Activity SORHA [5, 12]: 0 | Pre-emerge Herbicidal Activity SORHA [5, 13]: 30 | Pre-emerge Herbicidal Activity CHEAL [6, 12]: 30 | Pre-emerge Herbicidal Activity CHEAL [6, 13]: 80 | Pre-emerge Herbicidal Activity DIGSA [7, 12]: 0 | Pre-emerge Herbicidal Activity DIGSA [7, 13]: 60 | Pre-emerge Herbicidal Activity CASOB [8, 12]: 30 | Pre-emerge Herbicidal Activity CASOB [8, 13]: 60 | Pre-emerge Herbicidal Activity ABUTH [9, 12]: 90 | Pre-emerge Herbicidal Activity ABUTH [9, 13]: 100 | Pre-emerge Herbicidal Activity CORN [10, 14]: 0 | Pre-emerge Herbicidal Activity CORN [10, 15]: 0 | Pre-emerge Herbicidal Activity RICE [11, 14]: 0 | Pre-emerge Herbicidal Activity RICE [11, 15]: 10

COc1c(Cl)cc(F)c(-n2c(=O)n3n(c2=O)CCCC3)c1NC(C)=O [9-5]
Pre-emerge Herbicidal Activity AMARE [1, 12]: 100 | Pre-emerge Herbicidal Activity AMARE [1, 13]: 100 | Pre-emerge Herbicidal Activity ECHCG [2, 12]: 0 | Pre-emerge Herbicidal Activity ECHCG [2, 13]: 30 | Pre-emerge Herbicidal Activity SETVI [3, 12]: 20 | Pre-emerge Herbicidal Activity SETVI [3, 13]: 60 | Pre-emerge Herbicidal Activity IPOHE [4, 12]: 70 | Pre-emerge Herbicidal Activity IPOHE [4, 13]: 100 | Pre-emerge Herbicidal Activity SORHA [5, 12]: 0 | Pre-emerge Herbicidal Activity SORHA [5, 13]: 20 | Pre-emerge Herbicidal Activity CHEAL [6, 12]: 100 | Pre-emerge Herbicidal Activity CHEAL [6, 13]: 100 | Pre-emerge Herbicidal Activity DIGSA [7, 12]: 10 | Pre-emerge Herbicidal Activity DIGSA [7, 13]: 40 | Pre-emerge Herbicidal Activity CASOB [8, 12]: 10 | Pre-emerge Herbicidal Activity CASOB [8, 13]: 80 | Pre-emerge Herbicidal Activity ABUTH [9, 12]: 100 | Pre-emerge Herbicidal Activity ABUTH [9, 13]: 100 | Pre-emerge Herbicidal Activity CORN [10, 14]: 0 | Pre-emerge Herbicidal Activity CORN [10, 15]: 10 | Pre-emerge Herbicidal Activity RICE [11, 14]: 25 | Pre-emerge Herbicidal Activity RICE [11, 15]: 60

COc1c(Cl)cc(F)c(-n2c(=O)cc(C(F)(F)F)n(C)c2=O)c1NC(=O)N(Cc1ccccc1)c1ccccc1 [Compound 3-23]
Pre-emerge Herbicidal Activity AMARE [1, 16]: 0 | Pre-emerge Herbicidal Activity AMARE [1, 17]: 0 | Pre-emerge Herbicidal Activity ECHCG [2, 16]: 0 | Pre-emerge Herbicidal Activity ECHCG [2, 17]: 0 | Pre-emerge Herbicidal Activity SETVI [3, 16]: 0 | Pre-emerge Herbicidal Activity SETVI [3, 17]: 0 | Pre-emerge Herbicidal Activity IPOHE [4, 16]: 0 | Pre-emerge Herbicidal Activity IPOHE [4, 17]: 0 | Pre-emerge Herbicidal Activity SORHA [5, 16]: 0 | Pre-emerge Herbicidal Activity SORHA [5, 17]: 0 | Pre-emerge Herbicidal Activity CHEAL [6, 16]: 0 | Pre-emerge Herbicidal Activity CHEAL [6, 17]: 70 | Pre-emerge Herbicidal Activity DIGSA [7, 16]: 0 | Pre-emerge Herbicidal Activity DIGSA [7, 17]: 0 | Pre-emerge Herbicidal Activity CASOB [8, 16]: 0 | Pre-emerge Herbicidal Activity CASOB [8, 17]: 0 | Pre-emerge Herbicidal Activity ABUTH [9, 16]: 0 | Pre-emerge Herbicidal Activity ABUTH [9, 17]: 40 | Pre-emerge Herbicidal Activity CORN [10, 18]: 0 | Pre-emerge Herbicidal Activity CORN [10, 19]: 0 | Pre-emerge Herbicidal Activity RICE [11, 18]: 0 | Pre-emerge Herbicidal Activity RICE [11, 19]: 0

Cn1c(C(F)(F)F)cc(=O)n(-c2ccc(Cl)cc2C(=O)c2ccccc2)c1=O [14-57]
phytotoxicity rating AMARE ([1]; pre-emerge, 63 g ai/ha): 0 | phytotoxicity rating AMARE ([1]; pre-emerge, 250 g ai/ha): 0 | phytotoxicity rating ECHCG ([2]; pre-emerge, 63 g ai/ha): 0 | phytotoxicity rating ECHCG ([2]; pre-emerge, 250 g ai/ha): 0 | phytotoxicity rating SETVI ([3]; pre-emerge, 63 g ai/ha): 0 | phytotoxicity rating SETVI ([3]; pre-emerge, 250 g ai/ha): 0 | phytotoxicity rating IPOHE ([4]; pre-emerge, 63 g ai/ha): 0 | phytotoxicity rating IPOHE ([4]; pre-emerge, 250 g ai/ha): 0 | phytotoxicity rating SORHA ([5]; pre-emerge, 63 g ai/ha): 0 | phytotoxicity rating SORHA ([5]; pre-emerge, 250 g ai/ha): 0 | phytotoxicity rating CHEAL ([6]; pre-emerge, 63 g ai/ha): 0 | phytotoxicity rating CHEAL ([6]; pre-emerge, 250 g ai/ha): 0 | phytotoxicity rating DIGSA ([7]; pre-emerge, 63 g ai/ha): 0 | phytotoxicity rating DIGSA ([7]; pre-emerge, 250 g ai/ha): 20 | phytotoxicity rating CASOB ([8]; pre-emerge, 63 g ai/ha): 0 | phytotoxicity rating CASOB ([8]; pre-emerge, 250 g ai/ha): 0 | phytotoxicity rating ABUTH ([9]; pre-emerge, 63 g ai/ha): 0 | phytotoxicity rating ABUTH ([9]; pre-emerge, 250 g ai/ha): 0 | phytotoxicity rating CORN ([10]; pre-emerge, 63 g ai/ha): 0 | phytotoxicity rating CORN ([10]; pre-emerge, 250 g ai/ha): 0 | phytotoxicity rating RICE ([11]; pre-emerge, 63 g ai/ha): 0 | phytotoxicity rating RICE ([11]; pre-emerge, 250 g ai/ha): 0

CC(C)Oc1c(Cl)cc(Cl)c(-n2nnn(CCCF)c2=O)c1N [Compound 5-16]
Pre-emerge Herbicidal Activity AMARE [1, 12]: 0 | Pre-emerge Herbicidal Activity AMARE [1, 13]: 0 | Pre-emerge Herbicidal Activity ECHCG [2, 12]: 0 | Pre-emerge Herbicidal Activity ECHCG [2, 13]: 0 | Pre-emerge Herbicidal Activity SETVI [3, 12]: 0 | Pre-emerge Herbicidal Activity SETVI [3, 13]: 0 | Pre-emerge Herbicidal Activity IPOHE [4, 12]: 0 | Pre-emerge Herbicidal Activity IPOHE [4, 13]: 0 | Pre-emerge Herbicidal Activity SORHA [5, 12]: 0 | Pre-emerge Herbicidal Activity SORHA [5, 13]: 0 | Pre-emerge Herbicidal Activity CHEAL [6, 12]: 0 | Pre-emerge Herbicidal Activity CHEAL [6, 13]: 20 | Pre-emerge Herbicidal Activity DIGSA [7, 12]: 0 | Pre-emerge Herbicidal Activity DIGSA [7, 13]: 0 | Pre-emerge Herbicidal Activity CASOB [8, 12]: 0 | Pre-emerge Herbicidal Activity CASOB [8, 13]: 0 | Pre-emerge Herbicidal Activity ABUTH [9, 12]: 0 | Pre-emerge Herbicidal Activity ABUTH [9, 13]: 0 | Pre-emerge Herbicidal Activity CORN [10, 14]: 0 | Pre-emerge Herbicidal Activity CORN [10, 15]: 0 | Pre-emerge Herbicidal Activity RICE [11, 14]: 0 | Pre-emerge Herbicidal Activity RICE [11, 15]: 0
